This note sets out measurements from patent publication US5985900A, “Metalloproteinase inhibitors, pharmaceutical compositions containing them and their pharmaceutical uses” (Agouron Pharmaceuticals, Inc., priority 1998, dated 1999).

Common to all, as to type: biochemical
Test [1] has as its target human stromelysin (Sln) (Homo sapiens, UniProt P08254). In words: In vitro MMP inhibition assay (hydrolysis of fluorogenic MCA peptide substrate), stromelysin. The method, then:
The catalytic domain of human stromelysin (Sln) was obtained by expression and purification of a C-terminally truncated prostromelysin-1 from E. coli host BL21 (see Marcy et al. Biochem., 1991, 30, 6476). The subsequent activation of the mature form (Sln) was completed with 2 mM APMA for 1 hour at 37° C., followed by separation using a sizing column.
(§1) Assays were performed in assay buffer (50 mM Tricine pH 7.5, 200 mM sodium chloride, 10 mM calcium chloride, 0.5 mM zinc acetate containing 2% dimethyl sulfoxide (DMSO)) once the substrate and inhibitor were diluted into it. Stock solutions of inhibitors were prepared in 100% DMSO. Stock solutions of the substrate were prepared in 100% DMSO at a concentration of 6 mM.
(§2) The assay method was based on the hydrolysis of MCA-Pro-Leu-Gly-Leu-DPA-Ala-Arg-NH2 (American Peptide Co.) at 37° C. (see Knight, C. G. et al., FEBS, 1992, 296, 263-266). The fluorescence changes were monitored with a Perkin-Elmer LS-50B fluorimeter using an excitation wavelength of 328 nm and an emission wavelength of 393 nm. The substrate concentration used in the assays was 10 μM. The inhibitor was diluted into the assays from a solution in 100% DMSO, and controls substituted an equal volume of DMSO so that the final DMSO concentration from inhibitor and substrate dilution in all assays was 2%. […] Proper determination of steady-state rates of substrate cleavage required assay lengths of 60 minutes to allow for complete equilibration of the enzyme-inhibitor complex.
(§3) The Km for the MCA peptide substrate with the matrix metalloproteinases is quite high and exceeds its solubility under assay conditions. Consequently, the apparent Ki (Ki,app) was determined to describe the strength of inhibition. However, in this case, Ki,app would be essentially equal to Ki since [S]<<Km. For the determination of Ki,app, the concentration of the inhibitor was varied at a constant and low concentration of substrate and the steady-state rates of fluorescence change determined. In most cases absorptive quench due to the presence of ligand was not observed. For slow-binding inhibitors, onset of inhibition curves were collected for at least 45 minutes so that equilibrium was established. Steady-state rates of fluorescence change were obtained by fitting a curve to an equation for a single exponential decay containing a linear phase. The fitted value of the linear phase was taken as the steady-state rate. The steady-state rates were fitted to the Michaelis equation describing competitive inhibition by non-linear methods. Data resulting from tight-binding inhibition was analyzed, and Ki,app determined by fitting the data to the tight-binding equation of Morrison (Biochem. Biophys. Acta, vol. 185, pp. 269-286 (1969)) by non-linear methods.
(§4) All Ki values are in nM units.

The target in test [2] is T1, Human matrilysin (Matr) (Homo sapiens, UniProt P09237).
T1 construct: catalytic domain liberated with APMA
T1 sequence (P09237 95-267): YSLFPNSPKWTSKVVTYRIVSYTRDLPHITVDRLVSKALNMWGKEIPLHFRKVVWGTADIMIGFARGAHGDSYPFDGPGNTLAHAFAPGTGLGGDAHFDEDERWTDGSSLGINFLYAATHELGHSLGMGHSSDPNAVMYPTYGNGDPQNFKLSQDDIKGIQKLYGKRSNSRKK
In words: In vitro MMP inhibition assay (hydrolysis of fluorogenic MCA peptide substrate), matrilysin. Conditions: Table 1; Ki,app; MCA peptide substrate 10 μM, 37° C., pH 7.5, 2% DMSO; read-out: Matri Ki. Here is the method: Human matrilysin (Matr) was expressed in E. coli as a fusion protein with ubiquitin. After purification of the matrilysin/ubiquitin fusion from inclusion bodies, the catalytic domain was liberated by treatment with 2 mM APMA at 37° C. for 2 hours. Final purification was complete using copper chelate chromatography.
as §1, §2, §3, §4

Test [3] concerns the target T2, human collagenase-1 (HFC) (Homo sapiens, UniProt P03956).
T2 sequence (P03956 100-269 limits assumed): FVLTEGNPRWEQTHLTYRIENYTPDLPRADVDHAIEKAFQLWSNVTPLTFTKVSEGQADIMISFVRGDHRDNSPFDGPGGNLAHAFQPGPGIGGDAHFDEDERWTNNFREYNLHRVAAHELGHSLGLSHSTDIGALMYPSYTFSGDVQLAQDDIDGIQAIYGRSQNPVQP
In words: In vitro MMP inhibition assay (hydrolysis of fluorogenic MCA peptide substrate), fibroblast collagenase-1. Conditions: Table 1; Ki,app; MCA peptide substrate 10 μM, 37° C., pH 7.5, 2% DMSO. The method, then:
The catalytic domain of human collagenase-1 was expressed as a fusion protein with ubiquitin in E. coli (see Gehring, E. R., J Biol. Chem., 1995, 270, 22507). After purification of the fusion protein, the fibroblast collagenase-1 catalytic domain (HFC) was released either by treatment with purified, active stromelysin-1 (1:50 wlw ratio), which generated nearly 100% N-terminal Phe1, or by autoprocessing the concentrated collagenase-1 fusion and then incubating at 37° C. for 1 hour. Final purification was completed using zinc chelate chromatography.
as §1, §2, §3, §4

Test [4] deals with human progelatinase A (GelA) (Homo sapiens, UniProt P08253). The test is described as follows: In vitro MMP inhibition assay (hydrolysis of fluorogenic MCA peptide substrate), gelatinase A. The method, then:
The catalytic and fibronectin-like portion of human progelatinase A (GelA) was expressed as a fusion protein with ubiquitin in E. Coli. Assays were carried out on autocatalytically activated material.
as §1, §2, §3, §4

Test [5] has as its target T3, human collagenase-3 (Coll3) (Homo sapiens, UniProt P45452).
T3 construct: catalytic domain liberated with APMA
The test is described as follows: In vitro MMP inhibition assay (hydrolysis of fluorogenic MCA peptide substrate), collagenase-3. Conditions: Table 1; Ki,app; MCA peptide substrate 10 μM, 37° C., pH 7.5, 2% DMSO. Here is the method: The propeptide and catalytic domain of human collagenase-3 (Coll3) was expressed in E. coli as an N-terminal fusion protein with ubiquitin. After purification of the fusion from inclusion bodies, the catalytic domain was liberated by treatment with 2 mM APMA at room temperature overnight. Final purification was completed using copper chelate chromatography.
as §1, §2, §3, §4

[6] abbreviates: Table 1, Ki,app, MCA peptide substrate 10 μM, 37° C., pH 7.5, 2% DMSO, read-out: Sin Ki.
Setting [7] is: Table 1, Ki,app, MCA peptide substrate 10 μM, 37° C., pH 7.5, 2% DMSO, read-out: Gel A.

Structures are written as SMILES. Where two headings read alike, the source gives them in different places.

human progelatinase A (GelA), sequence (P08253 110-446 limits assumed): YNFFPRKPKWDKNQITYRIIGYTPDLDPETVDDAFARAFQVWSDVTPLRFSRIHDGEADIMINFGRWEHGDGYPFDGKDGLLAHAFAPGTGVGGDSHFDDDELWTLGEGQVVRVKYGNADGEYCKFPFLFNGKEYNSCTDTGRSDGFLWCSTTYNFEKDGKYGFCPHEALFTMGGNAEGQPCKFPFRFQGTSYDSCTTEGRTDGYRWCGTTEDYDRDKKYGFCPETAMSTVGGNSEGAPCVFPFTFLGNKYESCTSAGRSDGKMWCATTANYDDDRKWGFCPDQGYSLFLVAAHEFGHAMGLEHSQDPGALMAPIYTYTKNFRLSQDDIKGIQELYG
human stromelysin (Sln), sequence (P08254 100-272 limits assumed): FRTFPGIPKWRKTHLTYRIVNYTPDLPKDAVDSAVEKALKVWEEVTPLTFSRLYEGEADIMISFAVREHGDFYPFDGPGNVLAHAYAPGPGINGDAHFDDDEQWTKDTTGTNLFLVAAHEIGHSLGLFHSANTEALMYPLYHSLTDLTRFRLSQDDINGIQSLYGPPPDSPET

Take `CC(C)(C)C(NS(=O)(=O)c1ccc(Oc2ccc(Cl)cc2)cc1)C(=O)NO` (stereo in doubt) [Example 9m, 2(S)--N-hydroxy-3,3-dimethyl-2-[(4-(4-chlorophenoxy)benzenesulfonyl)amino]butanamide]: the Ki in test [1] (setting [6]) stood at 1 nM; in test [1] (Table 2, comparative example, read-out: STROMELYSIN Ki) it was 1 nM; in test [2] it was 93 nM; in test [3] it was 21 nM; in test [4] (setting [7]), 0.09 nM; in test [4] (Table 2, comparative example, gelatinase A, read-out: GELATINASE Kj), 0.09 nM. The Ki in test [5] worked out at 0.034 nM.

With `CC(C)(C)C(NS(=O)(=O)c1ccc(Oc2ccc(F)cc2)cc1)C(=O)NO` (stereo in doubt) [Example 9l, 2(S)--N-hydroxy-3,3-dimethyl-2-[(4-(4-fluorophenoxy)benzenesulfonyl)-amino]butanamide], the Ki in test [1] (setting [6]) was determined as 1.8 nM; in test [2], 120 nM; in test [3] it was 30 nM; in test [4] (setting [7]), 0.109 nM; in test [5], 0.059 nM.

As for `CC(C)(SCc1ccccn1)[C@@H](NS(=O)(=O)c1ccc(Oc2ccc(Br)cc2)cc1)C(=O)O` [Example 3d, N-[4-(4-Bromophenoxy)benzenesulfonyl]--S--[(pyrid-2-yl)methyl]-D-penicillamine], the Ki worked out at 1500 nM in test [1] (setting [6]); 75000 nM in test [2]; 34000 nM in test [3]; 7 nM in test [4] (setting [7]); 178 nM in test [5].

On to `CC(C)(C)[C@H](NS(=O)(=O)c1ccc(Oc2ccccn2)cc1)C(=O)NO` [Example 10c], for which the Ki was determined as 71 nM in test [1] (setting [6]); 2270 nM in test [2]; 960 nM in test [3]; 5.1 nM in test [4] (setting [7]); 4.6 nM in test [5].

In the case of `CC(C)(SCc1ccccc1)[C@@H](NS(=O)(=O)c1ccc(Oc2ccccc2)cc1)C(=O)NO` [Example 9i, 2(S)--N-hydroxy-3-methyl-3-benzylsulfanyl-2-[(4-phenoxybenzenesulfonyl)amino]butanamide], the Ki in test [1] (setting [6]) was 1.4 nM; in test [2], 26 nM; in test [3] it was 33 nM; in test [4] (setting [7]), 0.038 nM; in test [5], 0.16 nM.

In the case of `CSC(C)(C)[C@@H](NS(=O)(=O)c1ccc(Oc2ccc(Cl)cc2)cc1)C(=O)NO` [Example 9b, 2(S)--N-hydroxy-3-methyl-3-methylsulfanyl-2-[(4-(4-chlorophenoxy)benzenesulfonyl)amino]butanamide], the Ki in test [1] (setting [6]) came to 1.5 nM; in test [2], 115 nM; in test [3], 30 nM; in test [4] (setting [7]), 0.065 nM; in test [5] it was 0.042 nM.

As to `CC(C)(SCc1ccccn1)[C@@H](NS(=O)(=O)c1ccc(Oc2ccc(Br)cc2)cc1)C(=O)NO` [Example 9e, 2(S)--N-hydroxy-3-methyl-3-(pyrid-2-yl)methylsulfanyl-2-[(4-(4-bromophenoxy)benzenesulfonyl)amino]butanamide], the Ki in test [1] (setting [6]) was determined as 0.26 nM; in test [2], 7.9 nM; in test [3] it was 4.1 nM.

`CC(C)(C)[C@H](NS(=O)(=O)c1ccc(Oc2ccccc2)cc1)C(=O)NO` [Example 9k, 2(S)--N-hydroxy-3,3-dimethyl-2-[(4-phenoxybenzenesulfonyl)-amino]butanamide]: the Ki is 4.2 nM in test [1] (setting [6]); 376 nM in test [2]; 53 nM in test [3]; 0.091 nM in test [4] (setting [7]); 0.057 nM in test [5].
